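How tested: cells in 96-well plates exposed to compound for 48 hours at five concentrations. GI50: concentration for 50% inhibition of growth. TGI: concentration producing complete growth inhibition.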
Experiments:
Test in all cases: growth of human tumour cells (NCI), 48 h; in the data active means GI50 below about 0.43 µM; inactive means the rest
UACC-62 melanoma = system: UACC-62 melanoma
K-562 leukemia = system: K-562 leukemia
MDA-MB-231 breast = system: MDA-MB-231 breast
HL-60(TB) leukemia = system: HL-60(TB) leukemia
HOP-62 NSCLC = system: HOP-62 NSCLC
LOX IMVI melanoma = system: LOX IMVI melanoma
CAKI-1 renal = system: CAKI-1 renal
MDA-MB-435 = system: MDA-MB-435
UACC-257 melanoma = system: UACC-257 melanoma
HCC-2998 colon = system: HCC-2998 colon
SNB-19 CNS = system: SNB-19 CNS
HT29 colon = system: HT29 colon
SNB-75 CNS = system: SNB-75 CNS
SK-MEL-5 melanoma = system: SK-MEL-5 melanoma
HCT-116 colon = system: HCT-116 colon
CCRF-CEM leukemia = system: CCRF-CEM leukemia
SF-539 CNS = system: SF-539 CNS
NCI-H226 lung = system: NCI-H226 lung
OVCAR-5 ovarian = system: OVCAR-5 ovarian
SN12C renal = system: SN12C renal
SW-620 colon = system: SW-620 colon
MOLT-4 leukemia = system: MOLT-4 leukemia
RPMI-8226 leukemia = system: RPMI-8226 leukemia
IGROV1 ovarian = system: IGROV1 ovarian
SF-295 CNS = system: SF-295 CNS
OVCAR-8 ovarian = system: OVCAR-8 ovarian
MALME-3M melanoma = system: MALME-3M melanoma
DU-145 prostate = system: DU-145 prostate
TK-10 renal = system: TK-10 renal
EKVX NSCLC = system: EKVX NSCLC
SK-MEL-28 melanoma = system: SK-MEL-28 melanoma
NCI-H23 lung = system: NCI-H23 lung
M14 melanoma = system: M14 melanoma
COLO 205 colon = system: COLO 205 colon
UO-31 renal = system: UO-31 renal
SR leukemia = system: SR leukemia
T-47D breast = system: T-47D breast
OVCAR-3 ovarian = system: OVCAR-3 ovarian
RXF 393 renal = system: RXF 393 renal
786-0 renal = system: 786-0 renal
OVCAR-4 ovarian = system: OVCAR-4 ovarian
NCI/ADR-RES ovarian = system: NCI/ADR-RES ovarian
PC-3 prostate = system: PC-3 prostate
NCI-H522 lung = system: NCI-H522 lung
U251 CNS = system: U251 CNS
ACHN renal = system: ACHN renal
HCT-15 colon = system: HCT-15 colon
BT-549 breast = system: BT-549 breast
NCI-H460 lung = system: NCI-H460 lung
KM12 colon = system: KM12 colon
HS 578T breast = system: HS 578T breast
SF-268 CNS = system: SF-268 CNS
A549 NSCLC = system: A549 NSCLC
HOP-92 NSCLC = system: HOP-92 NSCLC
MCF7 breast = system: MCF7 breast
A498 renal = system: A498 renal

COc1cc2c(cc1OCCCNC(=O)/C=C1/C[C@H]3C=Nc4cc(OCc5ccccc5)c(OC)cc4C(=O)N3C1)NC(=O)[C@@H]1CCCN1C2=O
53.5 µM: TGI (BT-549 breast)
68.1 µM: TGI (SK-MEL-5 melanoma)
98.1 µM: TGI (SNB-75 CNS)
> 100 µM: TGI (UACC-62 melanoma) | TGI (K-562 leukemia) | TGI (MDA-MB-231 breast) | TGI (HL-60(TB) leukemia) | TGI (HOP-62 NSCLC) | TGI (LOX IMVI melanoma) | TGI (CAKI-1 renal) | TGI (MDA-MB-435) | TGI (UACC-257 melanoma) | TGI (HCC-2998 colon) | TGI (SNB-19 CNS) | TGI (HT29 colon) | TGI (HCT-116 colon) | TGI (CCRF-CEM leukemia) | TGI (NCI-H226 lung) | TGI (OVCAR-5 ovarian) | TGI (SN12C renal) | TGI (SW-620 colon) | TGI (MOLT-4 leukemia) | TGI (RPMI-8226 leukemia) | TGI (IGROV1 ovarian) | TGI (SF-295 CNS) | TGI (OVCAR-8 ovarian) | TGI (MALME-3M melanoma) | TGI (DU-145 prostate) | TGI (TK-10 renal) | TGI (EKVX NSCLC) | TGI (SK-MEL-28 melanoma) | TGI (NCI-H23 lung) | TGI (M14 melanoma) | TGI (COLO 205 colon) | TGI (UO-31 renal) | TGI (T-47D breast) | TGI (OVCAR-3 ovarian) | TGI (RXF 393 renal) | TGI (786-0 renal) | TGI (OVCAR-4 ovarian) | TGI (NCI/ADR-RES ovarian) | TGI (PC-3 prostate) | TGI (NCI-H522 lung) | TGI (U251 CNS) | TGI (ACHN renal) | TGI (HCT-15 colon) | TGI (NCI-H460 lung) | TGI (KM12 colon) | TGI (HS 578T breast) | TGI (SF-268 CNS) | TGI (A549 NSCLC) | TGI (HOP-92 NSCLC) | TGI (MCF7 breast) | TGI (A498 renal)
85.5 µM: TGI (SF-539 CNS)
inactive: GI50 (UACC-62 melanoma) 55.2 µM | GI50 (K-562 leukemia) 82.8 µM | GI50 (MDA-MB-231 breast) 50.9 µM | GI50 (HL-60(TB) leukemia) 51.9 µM | GI50 (HOP-62 NSCLC) 41.3 µM | GI50 (LOX IMVI melanoma) 43.3 µM | GI50 (CAKI-1 renal) > 100 µM | GI50 (MDA-MB-435) 44.2 µM | GI50 (UACC-257 melanoma) > 100 µM | GI50 (HCC-2998 colon) 60.3 µM | GI50 (SNB-19 CNS) 43.3 µM | GI50 (HT29 colon) 45.2 µM | GI50 (SNB-75 CNS) 32.7 µM | GI50 (SK-MEL-5 melanoma) 22.5 µM | GI50 (HCT-116 colon) 73.7 µM | GI50 (CCRF-CEM leukemia) 40.8 µM | GI50 (SF-539 CNS) 32.4 µM | GI50 (NCI-H226 lung) 69.5 µM | GI50 (OVCAR-5 ovarian) 93.5 µM | GI50 (SN12C renal) 18.4 µM | GI50 (SW-620 colon) 33.3 µM | GI50 (MOLT-4 leukemia) 29.6 µM | GI50 (RPMI-8226 leukemia) 43.6 µM | GI50 (IGROV1 ovarian) > 100 µM | GI50 (SF-295 CNS) 84.7 µM | GI50 (OVCAR-8 ovarian) > 100 µM | GI50 (MALME-3M melanoma) > 100 µM | GI50 (DU-145 prostate) 52.1 µM | GI50 (TK-10 renal) > 100 µM | GI50 (EKVX NSCLC) > 100 µM | GI50 (SK-MEL-28 melanoma) > 100 µM | GI50 (NCI-H23 lung) > 100 µM | GI50 (M14 melanoma) 55.3 µM | GI50 (COLO 205 colon) 54.6 µM | GI50 (UO-31 renal) > 100 µM | GI50 (SR leukemia) 17.5 µM | GI50 (T-47D breast) > 100 µM | GI50 (OVCAR-3 ovarian) > 100 µM | GI50 (RXF 393 renal) 33.6 µM | GI50 (786-0 renal) 51 µM | GI50 (OVCAR-4 ovarian) 73.8 µM | GI50 (NCI/ADR-RES ovarian) > 100 µM | GI50 (PC-3 prostate) 77.3 µM | GI50 (NCI-H522 lung) 31.3 µM | GI50 (U251 CNS) 33.3 µM | GI50 (ACHN renal) > 100 µM | GI50 (HCT-15 colon) > 100 µM | GI50 (BT-549 breast) 23.9 µM | GI50 (NCI-H460 lung) 38.9 µM | GI50 (KM12 colon) 47.5 µM | GI50 (HS 578T breast) 34.4 µM | GI50 (SF-268 CNS) 39.6 µM | GI50 (A549 NSCLC) > 100 µM | GI50 (HOP-92 NSCLC) 47.2 µM | GI50 (MCF7 breast) 32 µM | GI50 (A498 renal) 58.9 µM
49.2 µM: TGI (SR leukemia)

— PubChem BioAssay (NCI)
